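Cells were grown in 96-well plates and exposed to each compound for 48 hours at five concentrations; endpoints were interpolated linearly between bracketing concentrations, or set to the highest concentration if not reached. At the GI50, growth is halved. TGI marks complete inhibition of growth.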
Legend:
Test in all cases: inhibition of tumour cell growth, NCI panel, 48 h
[1] = tested on: A549 NSCLC
[2] = tested on: U251 CNS
[3] = tested on: MDA-MB-435
[4] = tested on: SW-620 colon
[5] = tested on: ACHN renal
[6] = tested on: MCF7 breast
[7] = tested on: SNB-19 CNS
[8] = tested on: PC-3 prostate
[9] = tested on: HL-60(TB) leukemia
[10] = tested on: RPMI-8226 leukemia
[11] = tested on: M14 melanoma
[12] = tested on: SK-OV-3 ovarian
[13] = tested on: 786-0 renal
[14] = tested on: SF-268 CNS
[15] = tested on: SF-539 CNS
[16] = tested on: IGROV1 ovarian
[17] = tested on: HCC-2998 colon
[18] = tested on: NCI-H522 lung
[19] = tested on: BT-549 breast
[20] = tested on: HCT-116 colon
[21] = tested on: MALME-3M melanoma
[22] = tested on: LOX IMVI melanoma
[23] = tested on: SK-MEL-2 melanoma
[24] = tested on: SK-MEL-5 melanoma
[25] = tested on: A498 renal
[26] = tested on: OVCAR-4 ovarian
[27] = tested on: HCT-15 colon
[28] = tested on: OVCAR-8 ovarian
[29] = tested on: T-47D breast
[30] = tested on: MDA-MB-231 breast
[31] = tested on: SNB-75 CNS
[32] = tested on: NCI/ADR-RES ovarian
[33] = tested on: EKVX NSCLC
[34] = tested on: NCI-H23 lung
[35] = tested on: UO-31 renal
[36] = tested on: NCI-H226 lung
[37] = tested on: MOLT-4 leukemia
[38] = tested on: UACC-62 melanoma
[39] = tested on: KM12 colon
[40] = tested on: SN12C renal
[41] = tested on: DU-145 prostate
[42] = tested on: RXF 393 renal
[43] = tested on: TK-10 renal
[44] = tested on: COLO 205 colon
[45] = tested on: CCRF-CEM leukemia
[46] = tested on: UACC-257 melanoma
[47] = tested on: CAKI-1 renal
[48] = tested on: NCI-H460 lung
[49] = tested on: SF-295 CNS
[50] = tested on: HT29 colon
[51] = tested on: HOP-92 NSCLC
[52] = tested on: K-562 leukemia
[53] = tested on: HS 578T breast
[54] = tested on: OVCAR-3 ovarian
[55] = tested on: HOP-62 NSCLC
[56] = tested on: SK-MEL-28 melanoma
[57] = tested on: OVCAR-5 ovarian

Which GI50 [1] does the source give for COc1cc2c(cc1OCCCCCN1CCN(c3cc(=O)oc4ccccc34)CC1)N=C[C@@H]1CCCN1C2=O here?
The GI50 was 2560 nM.

What about the TGI [1] of the same molecule?
Its TGI is 11500 nM.

And the GI50 [2]?
Its GI50 is 63.3 nM.

And the TGI [2]?
The TGI was 2320 nM.

What about the GI50 [3] of the same molecule?
Its GI50 is 183 nM.

And the TGI [3]?
The TGI was 425 nM.

What about the GI50 [4] of the same molecule?
The GI50 was 242 nM.

And the TGI [4]?
Its TGI is 6660 nM.

What about the GI50 [5] of the same molecule?
Its GI50 is 461 nM.

What about the TGI [5] of the same molecule?
The TGI was 2550 nM.

And the GI50 [6]?
The GI50 was 93 nM.

And the TGI [6]?
Its TGI is 4950 nM.

What about the GI50 [7] of the same molecule?
Its GI50 is 294 nM.

And the TGI [7]?
Its TGI is 12500 nM.

And the GI50 [8]?
Its GI50 is 91.8 nM.

And the TGI [8]?
Its TGI is 2340 nM.

And the GI50 [9]?
The GI50 was less than 45.3 nM.

And the TGI [9]?
Its TGI is 1120 nM.

What about the GI50 [10] of the same molecule?
The GI50 was less than 39 nM.

What about the TGI [10] of the same molecule?
Its TGI is 285 nM.

What about the GI50 [11] of the same molecule?
Its GI50 is 96.5 nM.

And the TGI [11]?
Its TGI is 338 nM.

And the GI50 [12]?
The GI50 was 821 nM.

And the TGI [12]?
The TGI was greater than 41300 nM.

And the GI50 [13]?
Its GI50 is 147 nM.

What about the TGI [13] of the same molecule?
The TGI was 468 nM.

And the TGI [14]?
Its TGI is 2470 nM.

And the GI50 [15]?
Its GI50 is 232 nM.

What about the TGI [15] of the same molecule?
Its TGI is 907 nM.

And the GI50 [16]?
Its GI50 is 83 nM.

What about the TGI [16] of the same molecule?
Its TGI is 401 nM.

And the GI50 [17]?
The GI50 was 176 nM.

What about the TGI [17] of the same molecule?
Its TGI is 398 nM.

What about the GI50 [18] of the same molecule?
The GI50 was less than 42.8 nM.

And the TGI [18]?
Its TGI is 170 nM.

What about the GI50 [19] of the same molecule?
Its GI50 is 158 nM.

And the TGI [19]?
Its TGI is 778 nM.

What about the GI50 [20] of the same molecule?
The GI50 was 88.9 nM.

And the TGI [20]?
The TGI was 336 nM.

What about the GI50 [21] of the same molecule?
Its GI50 is 219 nM.

And the TGI [21]?
The TGI was 536 nM.

And the GI50 [22]?
Its GI50 is less than 38.7 nM.

And the TGI [22]?
The TGI was 450 nM.

And the GI50 [23]?
The GI50 was 198 nM.

And the TGI [23]?
Its TGI is 533 nM.

And the GI50 [24]?
The GI50 was 206 nM.

And the TGI [24]?
The TGI was 481 nM.

What about the GI50 [25] of the same molecule?
Its GI50 is 220 nM.

What about the TGI [25] of the same molecule?
Its TGI is 488 nM.

What about the GI50 [26] of the same molecule?
The GI50 was 358 nM.

And the TGI [26]?
The TGI was 1710 nM.

What about the GI50 [27] of the same molecule?
The GI50 was 1020 nM.

What about the TGI [27] of the same molecule?
Its TGI is 7270 nM.

What about the GI50 [28] of the same molecule?
The GI50 was 293 nM.

What about the TGI [28] of the same molecule?
Its TGI is 19900 nM.

And the TGI [29]?
The TGI was 2280 nM.

What about the GI50 [30] of the same molecule?
Its GI50 is 27.7 nM.

And the TGI [30]?
The TGI was 730 nM.

And the TGI [31]?
Its TGI is 343 nM.

And the GI50 [32]?
Its GI50 is 1910 nM.

What about the TGI [32] of the same molecule?
The TGI was greater than 22000 nM.

And the GI50 [33]?
Its GI50 is 848 nM.

And the TGI [33]?
The TGI was 4650 nM.

What about the GI50 [34] of the same molecule?
Its GI50 is 262 nM.

And the TGI [34]?
The TGI was 1100 nM.

And the GI50 [35]?
Its GI50 is 690 nM.

What about the TGI [35] of the same molecule?
Its TGI is 11400 nM.

And the GI50 [36]?
The GI50 was 184 nM.

And the TGI [36]?
The TGI was 485 nM.

What about the GI50 [37] of the same molecule?
Its GI50 is 11.7 nM.

And the TGI [37]?
Its TGI is 1410 nM.

What about the GI50 [38] of the same molecule?
Its GI50 is 186 nM.

And the TGI [38]?
The TGI was 383 nM.

And the GI50 [39]?
Its GI50 is 268 nM.

What about the TGI [39] of the same molecule?
Its TGI is 1380 nM.

And the GI50 [40]?
Its GI50 is 182 nM.

What about the TGI [40] of the same molecule?
The TGI was 664 nM.

And the GI50 [41]?
Its GI50 is 221 nM.

What about the TGI [41] of the same molecule?
Its TGI is 3550 nM.

And the GI50 [42]?
Its GI50 is 62.9 nM.

What about the TGI [42] of the same molecule?
Its TGI is 253 nM.

And the GI50 [43]?
The GI50 was 175 nM.

And the TGI [43]?
The TGI was 13000 nM.

And the GI50 [44]?
The GI50 was 42.2 nM.

What about the TGI [44] of the same molecule?
Its TGI is 280 nM.

And the GI50 [45]?
Its GI50 is 124 nM.

And the TGI [45]?
Its TGI is 364 nM.

What about the GI50 [46] of the same molecule?
Its GI50 is 1590 nM.

What about the TGI [46] of the same molecule?
The TGI was 5690 nM.

What about the GI50 [47] of the same molecule?
The GI50 was 556 nM.

What about the TGI [47] of the same molecule?
Its TGI is 1860 nM.

What about the GI50 [48] of the same molecule?
Its GI50 is 131 nM.

What about the TGI [48] of the same molecule?
The TGI was 9990 nM.

What about the GI50 [49] of the same molecule?
Its GI50 is 331 nM.

And the TGI [49]?
The TGI was 3160 nM.

And the GI50 [50]?
Its GI50 is 84.1 nM.

What about the TGI [50] of the same molecule?
The TGI was 610 nM.

What about the TGI [51] of the same molecule?
Its TGI is 178 nM.

What about the GI50 [52] of the same molecule?
The GI50 was less than 41.1 nM.

And the TGI [52]?
The TGI was 3060 nM.

What about the GI50 [53] of the same molecule?
Its GI50 is 201 nM.

What about the TGI [53] of the same molecule?
The TGI was 1840 nM.

What about the GI50 [54] of the same molecule?
Its GI50 is 263 nM.

What about the TGI [54] of the same molecule?
Its TGI is 653 nM.

And the GI50 [55]?
The GI50 was 151 nM.

And the TGI [55]?
Its TGI is 438 nM.

What about the GI50 [56] of the same molecule?
The GI50 was 437 nM.

What about the TGI [56] of the same molecule?
Its TGI is 1340 nM.

What about the GI50 [57] of the same molecule?
Its GI50 is 407 nM.

What about the TGI [57] of the same molecule?
Its TGI is 18600 nM.

— PubChem BioAssay (NCI)
